# Measured values reported in US20240423207A1, “PICOLINAMIDE COMPOUNDS WITH FUNGICIDAL ACTIVITY” (CORTEVA AGRISCIENCE LLC, priority 2014, published 2024).
# Tests used:
# Alternaria solani = test: Tomato Early Blight (ALTESO) fungicidal activity on tomato plants; format: in vivo; settings: 24 h, 1 Day Protectant, read-out: ALTESO 1 DP disease control
# Experimental: Technical grades of materials were dissolved in acetone, which were then mixed with nine volumes of water (H2O) containing 110 ppm Triton X-100. The fungicide solutions were applied onto wheat seedlings using an automated booth sprayer to run-off. All sprayed plants were allowed to air dry prior to further handling. All fungicides were evaluated using the aforementioned method for their activity vs. all target diseases, unless stated otherwise. Wheat leaf blotch and brown rust activity were also evaluated using track spray applications, in which case the fungicides were formulated as EC formulations, containing 0.1% Trycol 5941 in the spray solutions. Wheat plants (variety Yuma) were grown from seed in a greenhouse in 50% mineral soil/50% soil-less Metro mix until the first leaf was fully emerged, with 7-10 seedlings per pot. These plants were inoculated with an aqueous spore suspension of Septoria tritici either prior to or after fungicide treatments. After inoculation the plants were kept in 100% relative humidity (one day in a dark dew chamber followed by two to three days in a lighted dew chamber at 20° C.) to permit spores to germinate and infect the leaf. The plants were then transferred to a greenhouse set at 20° C. for disease to develop. When disease symptoms were fully expressed on the 1st leaves of untreated plants, infection levels were assessed on a scale of 0 to 100 percent disease severity. Percent disease control was calculated using the ratio of disease severity on treated plants relative to untreated plants. Example I: Evaluation of Fungicidal Activity: Tomato Early Blight (Alternaria solani; Bayer code […]) Tomato plants (variety Outdoor Girl) were propagated in soil-less Metro mix, with each pot having one plant, and used when 12 to 14 days old. Test plants were inoculated with an aqueous spore suspension of Alternaria solani 24 h after fungicide treatments. After inoculation the plants were kept in 100% relative humidity (one day in a dark dew chamber followed by two to three days in a lighted dew chamber at 20° C.) to permit spores to germinate and infect the leaf. The plants were then transferred to a growth room at 22° C. for disease to develop. Fungicide formulation, application and disease assessment on the sprayed leaves followed the procedures as described in the Example A.
# Rhyncosporium secalis = test: Barley Scald (RHYNSE) fungicidal activity on barley seedlings; format: in vivo; settings: Hordeum vulgare, 24 h, 1 Day Protectant, read-out: RHYNSE 1 DP disease control
# Experimental: Technical grades of materials were dissolved in acetone, which were then mixed with nine volumes of water (H2O) containing 110 ppm Triton X-100. The fungicide solutions were applied onto wheat seedlings using an automated booth sprayer to run-off. All sprayed plants were allowed to air dry prior to further handling. All fungicides were evaluated using the aforementioned method for their activity vs. all target diseases, unless stated otherwise. Wheat leaf blotch and brown rust activity were also evaluated using track spray applications, in which case the fungicides were formulated as EC formulations, containing 0.1% Trycol 5941 in the spray solutions. Wheat plants (variety Yuma) were grown from seed in a greenhouse in 50% mineral soil/50% soil-less Metro mix until the first leaf was fully emerged, with 7-10 seedlings per pot. These plants were inoculated with an aqueous spore suspension of Septoria tritici either prior to or after fungicide treatments. After inoculation the plants were kept in 100% relative humidity (one day in a dark dew chamber followed by two to three days in a lighted dew chamber at 20° C.) to permit spores to germinate and infect the leaf. The plants were then transferred to a greenhouse set at 20° C. for disease to develop. When disease symptoms were fully expressed on the 1st leaves of untreated plants, infection levels were assessed on a scale of 0 to 100 percent disease severity. Percent disease control was calculated using the ratio of disease severity on treated plants relative to untreated plants. Example G: Evaluation of Fungicidal Activity: Barley Scald (Rhyncosporium secalis; Bayer code […]) Barley seedlings (variety Harrington) were propagated in soil-less Metro mix, with each pot having 8 to 12 plants, and used in the test when the first leaf was fully emerged. Test plants were inoculated by an aqueous spore suspension of Rhyncosporium secalis 24 h after fungicide treatments. After inoculation the plants were kept in a dew room at 20° C. with 100% relative humidity for 48 h. The plants were then transferred to a greenhouse set at 20° C. for disease to develop. Fungicide formulation, application and disease assessment on the sprayed leaves followed the procedures as described in the Example A.
Structure (SMILES),pest or weed control at 100 ppm (Alternaria solani),pest or weed control at 100 ppm (Rhyncosporium secalis)
"COc1ccnc(C(=O)N[C@@H](C)C(=O)O[C@@H](C)C(c2ccccc2)c2ccccc2)c1OC(C)=O [Cmpd 139, (S)-(S)-1,1-diphenylpropan-2-yl 2-(3-acetoxy-4-methoxypicolinamido)propanoate]",< 80%,> 80%
COc1ccnc(C(=O)N[C@@H](C)C(=O)O[C@@H](C)C(c2ccccc2)c2ccccc2)c1OC(=O)C(C)C [Cmpd 140],> 80%,
"COc1ccnc(C(=O)N[C@@H](C)C(=O)O[C@@H](C)C(c2ccccc2)c2ccccc2)c1OCOC(C)=O [Cmpd 141, (S)-(S)-1,1-diphenylpropan-2-yl 2-(3-(acetoxymethoxy)-4-methoxypicolinamido)propanoate]",< 80%,> 80%
"COc1ccnc(C(=O)N[C@@H](C)C(=O)O[C@@H](C)C(c2ccccc2)c2ccccc2)c1OCOC(=O)C(C)C [Cmpd 142, (S)-(S)-1,1-diphenylpropan-2-yl 2-(3-((isobutyryloxy)methoxy)-4-methoxypicolinamido)propanoate]",> 80%,> 80%
COc1ccnc(C(=O)N[C@@H](C)C(=O)O[C@@H](C)C(c2ccc(F)cc2)c2ccc(F)cc2)c1OC(C)=O [Cmpd 145],> 80%,> 80%
COc1ccnc(C(=O)N[C@@H](C)C(=O)O[C@@H](C)C(c2ccc(F)cc2)c2ccc(F)cc2)c1OCOC(C)=O [Cmpd 146],> 80%,> 80%
COc1ccnc(C(=O)N[C@@H](C)C(=O)O[C@@H](C)C(c2ccc(F)cc2F)c2ccc(F)cc2F)c1OCOC(C)=O [Cmpd 148],< 80%,> 80%
COc1ccnc(C(=O)N[C@@H](C)C(=O)O[C@@H](C)C(c2ccc(F)cc2F)c2ccc(F)cc2F)c1OC(C)=O [Cmpd 150],> 80%,> 80%
COc1ccnc(C(=O)N[C@@H](C)C(=O)O[C@@H](C)C(c2ccc(Cl)cc2)c2ccc(Cl)cc2)c1OC(C)=O [Cmpd 174],< 80%,> 80%
COc1ccnc(C(=O)N[C@@H](C)C(=O)O[C@@H](C)C(c2ccc(Cl)cc2)c2ccc(Cl)cc2)c1OCOC(C)=O [Cmpd 176],< 80%,> 80%
